PMC7997579, “Synthetic Lethality in Pancreatic Cancer: Discovery of a New RAD51-BRCA2 Small Molecule Disruptor That Inhibits Homologous Recombination and Synergizes with Olaparib” (Journal of Medicinal Chemistry, 2020)
Where two headings read alike, the source gives them in different places.

Tests used:
BRC4–RAD51 interaction = molecular target: T1, BRC4–RAD51 interaction (Homo sapiens, UniProt Q06609); test: Competitive biochemical ELISA assay (biotinylated BRC4 peptide vs RAD51); assay type: binding
T1 construct: purchased Creative Biomart (RAD51); Life Technologies (BRC4 peptide)
T1 sequence (Q06609 1-339): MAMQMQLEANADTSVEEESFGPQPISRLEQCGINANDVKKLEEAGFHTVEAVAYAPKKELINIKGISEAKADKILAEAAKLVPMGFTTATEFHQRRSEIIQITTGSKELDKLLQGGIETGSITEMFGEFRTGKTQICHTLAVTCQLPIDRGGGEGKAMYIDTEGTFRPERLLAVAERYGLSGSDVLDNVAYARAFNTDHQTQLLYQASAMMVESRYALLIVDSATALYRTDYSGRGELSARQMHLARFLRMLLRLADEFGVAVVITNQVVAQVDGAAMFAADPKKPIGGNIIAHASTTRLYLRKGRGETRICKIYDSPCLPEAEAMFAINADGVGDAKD
Outline: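 Plates coated with N-terminally biotinylated BRC4 peptide were blocked (1% BSA/PBST) and hybridised overnight with human RAD51. Compounds were tested from 0.01 to 100 μM in triplicate (1% DMSO); bound RAD51 was detected by anti-RAD51 and HRP-secondary antibodies with TMB colorimetric read-out.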

recombinant human RAD51 = molecular target: T2, recombinant human RAD51 (Homo sapiens, UniProt Q06609); test: Microscale thermophoresis (MST) binding assay; details: labeled His-hRAD51, 35d up to 40 μM, three replicates, read-out: Kd (RAD51-35d interaction)
T2 construct: made in house; host or cells: E. coli Rosetta2(DE3)pLysS, pET15b-His-hRAD51
T2 sequence (Q06609 1-339): T1 sequence (Q06609 1-339)
Description: To further assess the physical interaction between 35d and RAD51, a microscale thermophoresis (MST) assay was performed on the recombinant human RAD51 (see Experimental Section). The binding assay allowed us to determine the dissociation constant (Kd) for the RAD51-35d interaction and binding. […] This is in agreement with the ELISA assay, supporting the initial hypothesis that 35d could act as a RAD51-BRCA2 disruptor.
The recombinant protein hRAD51 was labeled with the Monolith His-Tag labeling kit RED-tris-NTA 2nd Generation kit (NanoTemper Technologies). MST measurements were simultaneously performed on 16 capillaries containing a constant concentration (25 nM) of labeled RED-tris-NTA 2nd Generation His-hRAD51 protein and 16 different concentrations of 35d in order to determine a concentration-dependent MST binding curve. The highest 35d concentration tested was 40 μM. Measurements were carried out in MST buffer (20 mM Hepes (pH 8.00), 250 mM KCl, 0.1 mM EDTA, 5% (v/v) glycerol, 5% DMSO).

BxPC-3 cells = test: Immunofluorescence of nuclear γ-H2AX foci (DNA damage); assay type: cell-based, human; details: BxPC-3, 48 h, 20 μM 35d + 10 μM olaparib vs olaparib alone
Description: (§1) To evaluate DNA damage through γH2AX nuclear foci, BXPC3 and Capan1 cells were seeded on glass coverslips in 6-well tissue culture plate (2 × 10^5 cells/well) and allowed to adhere overnight. After 48 h treatment with olaparib (10 μM) or 35d (20 μM) given alone or in combination, cultures growing on coverslips were fixed and treated as described above. For this experiment, the used antibodies were a rabbit polyclonal anti-γH2AX (Abcam, 1:1000 in 5% BSA/PBS) and a secondary anti-rabbit rhodamine-labeled (Novus Biologicals, 1:1000 in 1% BSA/PBS). For both experiments, images were acquired using a Nikon fluorescent microscope equipped with filters for FITC, TRITC, and DAPI. The percentage of cells bearing nuclear foci was estimated by two independent observers, by analyzing 100–250 cells for each treatment sample.

Capan-1 cells = test: as above; assay type: cell-based, human; details: Capan-1, 48 h, 20 μM 35d coadministered with 10 μM olaparib vs olaparib alone
Description: as §1

BxPC3 cells = test: Micronuclei visualization; assay type: cell-based, human; details: BxPC3, 72 h, 20 μM 35d + 10 μM olaparib vs single agents; p <0.01
Description: For micronuclei visualization, cells were grown on coverslips placed in a 6-multiwell plate (5 × 10^5 cells/well). After a 72 h treatment with olaparib (10 μM) or 35d (20 μM) given alone or in combination, wells were rapidly washed with PBS and then fixed for 10 min with cold methanol. Coverslips were then air-dried and mounted on glass slides using a solution of DAPI (5 μg/mL)/DABCO. Images were acquired on a Nikon fluorescent microscope equipped with filters for DAPI. […] The percentage of cells bearing micronuclei was estimated by two independent observers, by analyzing 100–250 cells for each treatment sample.

CCC(=O)N1N=C(c2c(-c3ccccc3)c3cc(Cl)ccc3[nH]c2=O)CC1c1ccc(OC)cc1 (stereo not drawn) [Compound 35d, 6-Chloro-3-(5-(4-methoxyphenyl)-1-propionyl-4,5-dihydro-1H-pyrazol-3-yl)-4-phenylquinolin-2(1H)-one]
EC50 (BRC4–RAD51 interaction; Table 2, compounds selected for cell-based study, read-out: EC50 ELISA): 19 ± 1 µM
EC50 (BRC4–RAD51 interaction; competition with BRC4 for RAD51, triplicate, ± standard deviation, NA = not active, racemic mixtures unless enantiomer named, read-out: EC50 (μM) on ELISA assay): 19 ± 1 µM
Kd (recombinant human RAD51): 11 ± 6 µM
γ-H2AX labeling in nuclei (BxPC-3 cells): increased
γ-H2AX labeling in nuclei (Capan-1 cells): not further enhanced
cells bearing micronuclei (BxPC3 cells): markedly more frequent
